Tests used:
Assay in all cases: relative viability (nuclei count vs DMSO), 5 days (fraction); higher = more cells survive
Bortezomib + Lapatinib = compound: CC(C)C[C@H](NC(=O)[C@H](Cc1ccccc1)NC(=O)c1cnccn1)B(O)O [Bortezomib] + CS(=O)(=O)CCNCc1ccc(-c2ccc3ncnc(Nc4ccc(OCc5cccc(F)c5)c(Cl)c4)c3c2)o1 [Lapatinib] (partner 2 µM)
How it was run: (§1)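 Relative viability is defined as nuclei in treated wells over nuclei in vehicle wells. Duplicate plates were run and medians reported. Lung cancer cell lines in 1536-well plates were dosed by pin tool one day after seeding, with one drug or with a fixed anchor-drug dose plus five library-drug doses (not always all listed) in √10 steps, and nuclei were counted after 5 days.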

[1] = compound: CC1=CC(=NN1)NC2=CC(=NC(=N2)/C=C/C3=CC=CC=C3)N4CCN(CC4)C + COc1cccc2cc(-c3nc([C@H]4CC[C@H](C(=O)O)CC4)n4ncnc(N)c34)[nH]c12 [OSI-027] (partner 0.5 µM)
How it was run: as §1

[2] = compound: CC1=CC(=NN1)NC2=CC(=NC(=N2)/C=C/C3=CC=CC=C3)N4CCN(CC4)C + O=C(CCCCCCC(=O)Nc1ccccc1)NO [Vorinostat] (partner 1 µM)
How it was run: as §1

Obatoclax + Decitabine = compound: COC1=CC(c2cc3ccccc3[nH]2)=N/C1=C\c1[nH]c(C)cc1C [Obatoclax] + Nc1ncn([C@H]2C[C@H](O)[C@@H](CO)O2)c(=O)n1 [Decitabine] (partner 2 µM)
How it was run: as §1

Cell Line	relative viability (Bortezomib + Lapatinib; first compound 0.0002 µM)	relative viability (Bortezomib + Lapatinib; first compound 0.000632 µM)	relative viability (Bortezomib + Lapatinib; first compound 0.002 µM)	relative viability (Bortezomib + Lapatinib; first compound 0.006325 µM)	relative viability (Bortezomib + Lapatinib; first compound 0.02 µM)	relative viability ([1]; first compound 0.08 µM)	relative viability ([1]; first compound 0.253 µM)	relative viability ([1]; first compound 0.8 µM)	relative viability ([1]; first compound 2.53 µM)	relative viability ([1]; first compound 8 µM)	relative viability ([2]; first compound 0.08 µM)	relative viability ([2]; first compound 0.253 µM)	relative viability ([2]; first compound 0.8 µM)	relative viability ([2]; first compound 2.53 µM)	relative viability ([2]; first compound 8 µM)	relative viability (Obatoclax + Decitabine; first compound 0.01 µM)	relative viability (Obatoclax + Decitabine; first compound 0.03162 µM)	relative viability (Obatoclax + Decitabine; first compound 0.1 µM)	relative viability (Obatoclax + Decitabine; first compound 0.3162 µM)	relative viability (Obatoclax + Decitabine; first compound 1 µM)
LXF-289	0.908	0.871	0.949	0.115	0.104	0.826	0.834	0.673	0.42	0.0972	0.742	0.759	0.603	0.252	0.113	0.346	0.385	0.372	0.342	0.408
NCI-H23		0.866	1.06	0.156	0.135	0.417	0.563	0.539	0.291	0.115	0.485	0.756	0.457	0.141	0.0948	0.328	0.272	0.369	0.286	0.349
NCI-H322M	0.573		0.523	0.541	0.393	0.504	0.546	0.538	0.364	0.278	0.881	0.948	0.891	0.31	0.303	0.701	0.687	0.856	0.818	0.662
NCI-H358	0.367	0.431	0.43	0.144	0.155	0.769	0.933	0.483	0.0714	0.0592	0.587	0.756	0.178	0.116	0.0712	0.213	0.187	0.232	0.157	0.137
NCI-H460	0.879	0.975	1.03	0.0212	0.014	0.696	0.606	0.578	0.0297	0.0153	0.673	0.755	0.382	0.0404	0.0188	0.521	0.385	0.522	0.133	0.0944
NCI-H520	0.91	0.857	0.271	0.108	0.128	0.289	0.286	0.214	0.165	0.128	0.7	0.678	0.415	0.184	0.14	0.441	0.309	0.631	0.507	0.292
NCI-H596	0.947	1	0.99	0.245	0.264	0.633	0.72	0.671	0.34	0.247	0.557	0.633	0.577	0.42	0.139	0.953	0.986	1.04	0.848	0.79
NCI-H647	1.05	1.05	0.711	0.0371	0.0208	0.706	0.628	0.668	0.13	0.0671	0.58	0.626	0.391	0.128	0.0534	0.422	0.27	0.438	0.3	0.112
NCI-H661	0.458	0.512	0.406	0.297	0.18	0.774		0.599	0.39	0.217	0.784	0.854	0.562	0.348	0.311	0.539	0.532	0.594	0.558	0.489
NCI-H727	0.654	0.872	0.864	0.229	0.113	0.608	0.485	0.678	0.398	0.278	0.86	0.882	1.32	1.02	0.523	0.916	0.731	0.798	0.591	0.872
NCI-H838	0.897	0.982	0.936	0.121	0.114	0.346	0.413	0.385	0.208	0.103	0.726	0.729	0.394	0.146	0.117	0.471	0.412	0.511	0.338	0.32
NCI-H1355	0.948	0.906	1.2	0.6	0.134	0.378	0.374	0.389	0.213	0.105	0.639	0.599	0.622	0.273	0.104	0.368	0.347	0.338	0.334	0.335
NCI-H1395	0.998	0.79	0.449	0.499	0.28	0.56	0.621	0.625	0.387	0.26	0.702	0.669	0.675	0.375	0.236	0.716	0.735	0.754	0.695	0.513
NCI-H1437	0.655	0.878	0.806	0.0943	0.0863	0.84	0.89	0.947	0.737	0.164	0.631	0.904	0.819	0.394	0.201	0.626	0.426	0.601	0.537	0.43
NCI-H1650	0.279	0.482	0.154	0.17	0.181	0.645	0.782	0.624	0.154	0.0984	0.523	0.733	0.553	0.14	0.0794	0.457	0.352	0.47	0.268	0.267
NCI-H1651	0.709	0.74	0.301	0.128	0.103	0.613	0.749	0.63	0.293	0.133	0.349	0.529	0.464	0.497	0.145	0.582	0.338	0.434	0.355	0.495
NCI-H1666	0.611	0.883	0.841	0.194	0.187	0.822	0.921	0.86	0.79	0.432	1.05	0.992	0.926	1.12	0.802	0.731	0.688	0.68	0.586	0.691
NCI-H1734	0.977	0.99	1.32	0.21	0.112	0.637	0.527	0.475	0.234	0.139	0.745	0.757	0.694	0.22	0.187	0.504	0.467	0.511	0.491	0.506
NCI-H1755	0.991	0.853	1.04	0.48	0.155	0.724	0.715	0.648	0.363	0.209	0.682	0.773	0.651	0.359	0.209	0.684	0.617	0.697	0.655	0.662
NCI-H1793	0.683	0.624	0.868	0.466	0.154	0.301	0.204	0.26	0.107	0.0726	0.544	0.77	0.78	0.124	0.0909	0.578	0.47	0.519	0.421	0.415
NCI-H1915	0.94	0.944	0.932	0.973	0.0577	0.635	0.496	0.557	0.371	0.271	0.493	0.584	0.467	0.376	0.116	0.268	0.267	0.24	0.256	0.272
NCI-H1944	0.883	0.774	0.929	0.809	0.328	0.437	0.4	0.394	0.272	0.145	0.581	0.565	0.394	0.286	0.16	0.429	0.42	0.464	0.431	0.388
NCI-H1975	0.893	0.839	0.18	0.105	0.14	0.676	0.746	0.629	0.15	0.0749	0.663	0.733	0.536	0.187	0.128	0.476	0.365	0.322	0.38	0.278
NCI-H1993	0.69	0.77	0.935	0.51	0.497	0.514	0.484	0.478	0.457	0.414	0.737	0.734	1.03	0.238	0.275	0.659	0.545	0.618	0.611	0.612
NCI-H2009	0.583	0.812	0.968	0.0615	0.0663	0.615	0.672	0.638	0.227	0.111	0.751	0.699	0.712	0.218	0.121	0.371	0.384	0.358	0.305	0.213
NCI-H2023	0.521	0.822	0.773	0.144	0.0649	0.374	0.45	0.341	0.0653	0.041	0.586	0.781	0.319	0.0637	0.0403	0.216	0.203	0.222	0.159	0.0785
